Measured values from PMC3901259, “Characterisation of the Metabolites of 1,8-Cineole Transferred into Human Milk: Concentrations and Ratio of Enantiomers” (Metabolites, 2013).

Assays:
[1] = set-up: method as in PMID 20425757; settings: one volunteer, sage tea, overall intake 1.02 mg 1,8-cineole; cited from earlier work
[2] = Determination of the ratios of enantiomers of chiral metabolites in human milk on chiral GC capillaries; format: in vivo
Method in brief: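 Milk extracts analysed by GC-MS on cyclodextrin chiral capillaries: Rt-bDEXsm for 2,3-dehydro-, α2,3-epoxy-, 2-oxo-, 3-oxo- and 9-hydroxy-1,8-cineole, Rt-yDEXsa for α2-, α3- and β2-hydroxy-1,8-cineole. Enantiomer ratio = each enantiomer's peak area over summed pair area ×100; absolute enantiomer concentrations from known metabolite concentrations.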

Enantiomeric ratio in human milk [2]: nearly enantiomerically pure | Percentage E1 in single sample (outlier) ([2]; human milk sample B-2a, excluded from Table 3): 40.5% | Percentage E1, range as described for boxplot ([2]; human milk samples, Figure 5): under 10%
SMILES: CC1(C)OC2(C)CCC1CC2O (stereo not drawn) [a2-hydroxy-1,8-cineole, α2-hydroxy-1,8-cineole]
Concentration in plasma [1]: 14.62 ng/mL
